Measured values taken from patent US12479816B2, “20-HETE formation inhibitors” (UNIVERSITY OF PITTSBURGH—OF THE COMMONWEALTH SYSTEM OF …, priority 2019, dated 2025).

What was measured:
[1] = HLM stability determination; assay type: in vitro ADME, human; conditions: HLM 500 μg/ml, 1 μM compound, NADPH, relative to 0 min
[2] = tested on: 20-HETE formation (CYP4) in RLM; experiment: IC50 determination, 20-HETE formation in RLM; assay type: biochemical, rat; conditions: RLM 300 μg/ml, AA 100 μM, 12 concentrations
Protocol: Microsomal incubations contained HLM, RLM (300 μg/ml), AA (100 μM), NADPH (1 mM) and test compounds at 12 concentrations (0.1 nM-50 μM) in a 1 ml total volume in microsomal incubation buffer (0.12 M potassium phosphate buffer containing 5 mM magnesium chloride). Reaction was started by adding NADPH to the incubates and was carried out at 37° C. in a shaking water bath for 20 min. Reaction was stopped by placing tubes on ice, followed by adding 12.5 μl 20-HETE-d6 as internal standard to each sample. Microsomal incubations were extracted with 3 ml ethyl ether twice, dried down under nitrogen gas and reconstituted in 125 μl 80:20 methanol:deionized H2O for analysis. 20-HETE formation was quantified using the validated UPLC-MS/MS assay described above and normalized by vehicle group. HET0016 (250 nM) was used as positive control. Incubates without NADPH group served as the negative control. IC50 was determined by fitting the dose-response curve using Graphpad Prism nonlinear regression.

Stability HLM % @ 30 min [1] | IC50 [2] | SMILES
95% | 570 nM | O=C1CCCN1c1ccc(C2CCN(c3cn[nH]c3)CC2)cc1 [Compound 100, 1-(4-(1-(1H-Pyrazol-4-yl)piperidin-4-yl)phenyl)pyrrolidin-2-one]
92% |  | COc1ccc(C2CCN(c3cn[nH]c3)CC2)cc1 [Compound 20, 4-(4-Methoxyphenyl)-1-(1H-pyrazol-4-yl)piperidine]
91% | 720 nM | O=C1CCCN1Cc1ccc(C2CCN(c3cn[nH]c3)CC2)cc1 [Compound 83, 1-(4-(1-(1H-Pyrazol-4-yl)piperidin-4-yl)benzyl)pyrrolidin-2-one]

Second part, the compound before the results:

SMILES | Stability HLM % @ 30 min [1] | IC50 [2]
Clc1ccc(CC2CCN(c3cn[nH]c3)CC2)cc1 [Compound 93, 4-(4-Chlorobenzyl)-1-(1H-pyrazol-4-yl)piperidine] | 85% | 120 nM
COc1ccc(C2CCN(c3ccn[nH]3)CC2)cc1 [Compound 19, 4-(4-Methoxyphenyl)-1-(1H-pyrazol-5-yl)piperidine] | 89% | 
c1ccc(C2CCN(c3ccn[nH]3)CC2)cc1 [Compound 54, 4-Phenyl-1-(1H-pyrazol-5-yl)piperidine] | 91% | 
c1ccc(C2CCN(c3cn[nH]c3)CC2)cc1 [Compound 1, 4-Phenyl-1-(1H-pyrazol-4-yl)piperidine] | 100% | 
c1ccc(CC2CCN(c3cn[nH]c3)CC2)cc1 [Compound 3, 4-Benzyl-1-(1H-pyrazol-4-yl)piperidine] | 85% | 
